Measured values: patent publication US20230271959A1, “HETEROCYCLIC COMPOUND AS BCL-2 INHIBITOR” (Beijing Innocare Pharma Tech Co., Ltd., priority 2020, published 2023)

Key:
[1] = molecular target: T1, human recombinant Bcl-XL protein (Homo sapiens, UniProt Q07817); assay: Fluorescence polarization test for inhibition of BCL-XL binding to FITC-BIM; settings: 10 nM BCL-XL, 10 nM FITC-BIM, read-out: FP BCL-XL IC50
T1 construct: purchased Beijing Yiqiao Shenzhou Biotechnology Co., Ltd. 10455-H0SE
Description: Fluorescence polarization assay was used to evaluate the effect of the compounds of the present invention on the biological activity of BCL-XL.
The effects of the compounds on the biological activity of BCL-XL were evaluated by detecting the effects of the compounds on the binding activity of BCL-XL to BIM using an affinity assay method based on the principle of fluorescence polarization. The reaction buffer contains the following components: PBS (pH 7.4, 3 mM Na2HPO4, 155 mM NaCl, 1 mM KH2PO4), 1 mM DTT; human recombinant Bcl-XL protein (Item No. 10455-H0SE) (purchased from Beijing Yiqiao Shenzhou Biotechnology Co., Ltd.) was diluted to 10 nM with reaction buffer; FITC-labeled BIM polypeptide (purchased from Nanjing GenScript Biotechnology Co., Ltd) was diluted to 10 nM with reaction buffer.
The compounds were dissolved in 100% DMSO and diluted to 1 μM, followed by 4-fold serial dilutions in DMSO to a minimum concentration of 0.061 nM, each concentration point was further diluted 50-fold with reaction buffer.
3 μL of solution containing the compound and 12 μL of solution containing BCL-XL were added to the black 384-well assay plate, mixed well, and incubated at room temperature for 15 minutes. Subsequently, 15 μL of FITC-BIM solution was added, and the reaction mixture was incubated at room temperature for 30 minutes in the dark place, and then the fluorescence polarization was detected immediately on an Envision multi-plate reader (Perkin Elmer), with 480 nm as the excitation wavelength and 535 nm as the emission wavelength. In this experiment, the group without BCL-XL protein was used as a negative control (100% inhibition), and the group with BCL-XL protein but without the compound was added as a positive control (0% inhibition). The inhibition percentage of the compound to the affinity of BCL-XL can be calculated using the following equation: […]
(§1) The IC50 of the compound was calculated from 8 concentration points using XLfit (ID Business Solutions Ltd., UK) software by the following equation:
(§2) Y=Bottom+(Top−Bottom)/(1+10^((log IC50−X)*slope factor))
(§3) where Y is the inhibition percentage, X is the logarithm of the concentration of the compound to be tested, Bottom is the maximum inhibition percentage, Top is the minimum inhibition percentage, and slope factor is the slope coefficient of the curve.

[2] = test system: RS4;11 cells (acute lymphoblastic leukemia cells); assay: RS4;11 cell proliferation, CellTilter-Glo luminescence cell viability assay; format: cell-based; settings: Homo sapiens, RS4-11; CTG readout after 48 hours
Description: The effects of the compounds of the present invention on the proliferation of RS4;11 cells were evaluated using a luminescence cell viability assay.
A CellTilter-Glo (CTG) Assay Kit is used to detect ATP, a key indicator of the metabolism of living cells, through a unique, highly sensitive and stable luciferase. The luminescent signal generated in the assay is proportional to the number of the viable cells in the medium, therefore the cell proliferation of RS4;11 can be determined.
CellTilter-Glo reagent (Promega, G7572) is composed of CellTilter-Glo lyophilized powder and CellTilter-Glo buffer, and the lyophilized powder can be dissolved in the buffer for use.
RS4;11 cells (ATCC, CRL-1873) were cultured in RPMI1640 complete medium (Thermofisher, 72400-047) containing 10% FBS (GBICO, 10099-141) and 100 units/ml penicillin-streptomycin solution (Thermofisher, 15140122)), when the cells covered 80-90% in the culture vessel, they were digested and dispersed with 0.25% trypsin (containing EDTA) (Thermofisher, 25200056) and then planted in a white 384-well plate (Thermofisher, 164610), and then the 384-well plate was incubated overnight in a 37° C., 5% CO2 incubator. Compounds were dissolved in 100% DMSO and diluted to […], followed by 4-fold serial dilutions with DMSO to a minimum concentration of 0.061 μM, and each concentration point was further diluted 50-fold with FBS-free RPMI1640 medium. If the IC50 of the compound is very low, the initial concentration of the compound can be reduced. After overnight, 3 μL of the compound diluted in the medium was added to each well, and the mixture was gently centrifuged to mix. The group without cells was used as a negative control (100% inhibition), and the group with 0.2% DMSO was used as a positive control (0% inhibition). The 384-well plate was placed in a 37° C., 5% CO2 incubator for further cultivation. After 48 hours, the plate was taken out and equilibrated to room temperature. 15 μl of CTG reagent was added to each well, the plate was shaken gently for 3 minutes to make sure that the cell lysis was carried out thoroughly, then the plate was kept for 10 minutes to stabilize the luminescence signal, then the luminescence signal was read by EnVision (Perkin Elmer).
The inhibition percentage of the compounds to RS4;11 cell proliferation can be calculated using the following equation:
Inhibition Percentage=100−100*(signal compound-signal negative control)/(signal positive control-signal negative control)
as §1
Y=Bottom+(Top−Bottom)/(1+10^((Log IC50−X)*slope factor))
wherein, Y is the inhibition percentage, Bottom is the bottom plateau of the curve (the bottom plateau value of the S-shaped curve), Top is the top plateau of the curve (the top plateau value of the S-shaped curve), and X is the logarithm of the concentration of the compound to be tested.

[3] = molecular target: T2, human recombinant Bcl-2 protein (Homo sapiens, UniProt P10415); assay: Fluorescence polarization test for inhibition of BCL-2 binding to FITC-BIM; settings: 5 nM BCL-2, 5 nM FITC-BIM, read-out: FP BCL-2 IC50
T2 construct: purchased Beijing Yigiao Shenzhou Biotechnology Co., Ltd. 10195-HOSE
T2 sequence (P10415 whole entry): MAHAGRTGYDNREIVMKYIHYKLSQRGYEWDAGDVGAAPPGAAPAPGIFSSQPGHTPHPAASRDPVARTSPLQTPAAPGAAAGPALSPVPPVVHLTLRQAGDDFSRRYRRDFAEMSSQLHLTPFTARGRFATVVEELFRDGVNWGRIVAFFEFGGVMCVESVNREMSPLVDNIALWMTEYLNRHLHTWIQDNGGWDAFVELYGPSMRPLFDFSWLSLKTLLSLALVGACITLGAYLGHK
Description: Fluorescence polarization assay was used to evaluate the effect of the compounds of the present invention on the biological activity of BCL-2.
The effects of the compounds on the biological activity of BCL-2 were evaluated by determining the effects of the compounds on the binding activity of BCL-2 to leukemia pro-apoptotic protein (BIM) using an affinity assay method based on the principle of fluorescence polarization. The reaction buffer comprises the following components: PBS (pH 7.4, 3 mM Na2HPO4, 155 mM NaCl, 1 mM KH2PO4), 1 mM DTT; human recombinant Bcl-2 protein (Item No. 10195-HOSE) (purchased from Beijing Yigiao Shenzhou Biotechnology Co., Ltd.) was diluted to 5 nM with the reaction buffer; FITC-labeled BIM polypeptide (purchased from Nanjing GenScript Biotechnology Co., Ltd.) was diluted to 5 nM with the reaction buffer.
The compounds were dissolved in 100% DMSO and diluted to 0.1, 1, 10 μM, followed by 4-fold serial dilutions with DMSO to a minimum concentration of 0.0061, 0.061, 0.61 nM, each concentration point was further diluted 50-fold with the reaction buffer.
3 μL of solution containing the compound and 12 μL of solution containing BCL-2 were added to the black 384-well assay plate, mixed well, and incubated at room temperature for 15 minutes. Subsequently, 15 μL of FITC-BIM solution was added, and the reaction mixture was incubated at room temperature for 30 minutes in dark place, and then the fluorescence polarization was detected immediately on an Envision multi-mode reader (Perkin Elmer), with 480 nm as the excitation wavelength and 535 nm as the emission wavelength. In this experiment, the group without BCL-2 protein was used as a negative control (100% inhibition), and the group with BCL-2 protein but without the compound was used as a positive control (0% inhibition). The inhibition percentage of the compound to the affinity of BCL-2 can be calculated using the following equation: […]
as §1, §2, §3

T1 sequence (Q07817 whole entry): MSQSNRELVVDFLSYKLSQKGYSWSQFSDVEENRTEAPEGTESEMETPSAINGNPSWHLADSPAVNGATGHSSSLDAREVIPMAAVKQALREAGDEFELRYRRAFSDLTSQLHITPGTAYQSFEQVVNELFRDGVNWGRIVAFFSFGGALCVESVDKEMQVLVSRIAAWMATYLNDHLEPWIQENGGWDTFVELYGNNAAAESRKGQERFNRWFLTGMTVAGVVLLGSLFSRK

Row | IC50 [1] [nM] | IC50 [2] [nM] | IC50 [3] [nM] | SMILES
1 | > 1000 | 4.25 | 2.13 | C[C@@H]1CCC(CN2CCN(c3ccc(C(=O)NS(=O)(=O)c4ccc(NCC5CCOCC5)c([N+](=O)[O-])c4)c(Oc4cnc5[nH]ccc5c4)c3)C[C@H]2C)=C(c2ccc(Cl)cc2)C1 [Example 19, 2-((1H-pyrrolo[2,3-b]pyridin-5-yl)oxy)-4-((R)-4-(((R)-4′-chloro-5-methyl-3,4,5,6-tetrahydro-[1,1′-biphenyl]-2-yl)methyl)-3-methylpiperazin-1-yl)-N-((3-nitro-4-(((tetrahydro-2H-pyran-4-yl)methyl)amino)phenyl)sulfonyl)benzamide]
2 | > 1000 | 8.8 | 2.57 | C[C@@H]1CCC(CN2CCN(c3ccc(C(=O)NS(=O)(=O)c4ccc(NC[C@H]5COCCO5)c([N+](=O)[O-])c4)c(Oc4cnc5[nH]ccc5c4)c3)C[C@H]2C)=C(c2ccc(Cl)cc2)C1 [Example 20, N-((4-((((S)-1,4-dioxan-2-yl)methyl)amino)-3-nitrophenyl)sulfonyl)-2-((1H-pyrrolo[2,3-b]pyridin-5-yl)oxy)-4-((R)-4-(((R)-4′-chloro-5-methyl-3,4,5,6-tetrahydro-[1,1′-biphenyl]-2-yl)methyl)-3-methylpiperazin-1-yl)benzamide]
3 | > 1000 | 8.8 | 1.97 | C[C@@H]1CCC(CN2CCN(c3ccc(C(=O)NS(=O)(=O)c4cc(F)c(NCC5CCOCC5)c([N+](=O)[O-])c4)c(Oc4cnc5[nH]ccc5c4)c3)C[C@H]2C)=C(c2ccc(Cl)cc2)C1 [Example 21, 2-((1H-pyrrolo[2,3-b]pyridin-5-yl)oxy)-4-((R)-4-(((R)-4′-chloro-5-methyl-3,4,5,6-tetrahydro-[1,1′-biphenyl]-2-yl)methyl)-3-methylpiperazin-1-yl)-N-((3-fluoro-5-nitro-4-(((tetrahydro-2H-pyran-4-yl)methyl)amino)phenyl)sulfonyl)benzamide]
4 | > 1000 | 4.1 | 1.49 | C[C@@H]1CCC(CN2CCN(c3ccc(C(=O)NS(=O)(=O)c4cc(F)c(NC[C@H]5COCCO5)c([N+](=O)[O-])c4)c(Oc4cnc5[nH]ccc5c4)c3)C[C@H]2C)=C(c2ccc(Cl)cc2)C1 [Example 22]

Second part, the molecule before the results:

Row | SMILES | IC50 [1] [nM] | IC50 [2] [nM] | IC50 [3] [nM]
5 | C[C@H]1CN(CC2=C(c3ccc(Cl)cc3)CC(C)(C)CC2)CCN1c1ccc(C(=O)NS(=O)(=O)c2ccc(NCC3CCOCC3)c([N+](=O)[O-])c2)c(Oc2cnc3[nH]ccc3c2)c1 [Example 13, (S)-2-((1H-pyrrolo[2,3-b]pyridin-5-yl)oxy)-4-(4-((4′-chloro-5,5-dimethyl-3,4,5,6-tetrahydro-[1,1′-biphenyl]-2-yl)methyl)-2-methylpiperazin-1-yl)-N-((3-nitro-4-(((tetrahydro-2H-pyran-4-yl)methyl)amino)phenyl)sulfonyl)benzamide] | > 1000 | > 500 | > 100
6 | C[C@H]1CCC(CN2CCN(c3ccc(C(=O)NS(=O)(=O)c4cc(F)c(NCC5CCOCC5)c([N+](=O)[O-])c4)c(Oc4cnc5[nH]ccc5c4)c3)C[C@H]2C)=C(c2ccc(Cl)cc2)C1 [Example 14] | > 1000 | 3.8 | 2.35
7 | C[C@H]1CCC(CN2CCN(c3ccc(C(=O)NS(=O)(=O)c4ccc(NCC5CCOCC5)c([N+](=O)[O-])c4)c(Oc4cnc5[nH]ccc5c4)c3)C[C@H]2C)=C(c2ccc(Cl)cc2)C1 [Example 15, 2-((1H-pyrrolo[2,3-b]pyridin-5-yl)oxy)-4-((R)-4-(((S)-4′-chloro-5-methyl-3,4,5,6-tetrahydro-[1,1′-biphenyl]-2-yl)methyl)-3-methylpiperazin-1-yl)-N-((3-nitro-4-(((tetrahydro-2H-pyran-4-yl)methyl)amino)phenyl)sulfonyl)benzamide] | > 1000 | 19 | 5.99
8 | C[C@H]1CCC(CN2CCN(c3ccc(C(=O)NS(=O)(=O)c4ccc(NC[C@H]5COCCO5)c([N+](=O)[O-])c4)c(Oc4cnc5[nH]ccc5c4)c3)C[C@H]2C)=C(c2ccc(Cl)cc2)C1 [Example 16, N-((4-((((S)-1,4-dioxan-2-yl)methyl)amino)-3-nitrophenyl)sulfonyl)-2-((1H-pyrrolo[2,3-b]pyridin-5-yl)oxy)-4-((R)-4-(((S)-4′-chloro-5-methyl-3,4,5,6-tetrahydro-[1,1′-biphenyl]-2-yl)methyl)-3-methylpiperazin-1-yl) benzamide] | > 1000 | 8.8 | 3.41
9 | C[C@H]1CCC(CN2CCN(c3ccc(C(=O)NS(=O)(=O)c4cc(F)c(NC[C@H]5COCCO5)c([N+](=O)[O-])c4)c(Oc4cnc5[nH]ccc5c4)c3)C[C@H]2C)=C(c2ccc(Cl)cc2)C1 [Example 17, N-((4-((((S)-1,4-dioxan-2-yl)methyl)amino)-3-fluoro-5-nitrophenyl)sulfonyl)-2-((1H-pyrrolo[2,3-b]pyridin-5-yl)oxy)-4-((R)-4-(((S)-4′-chloro-5-methyl-3,4,5,6-tetrahydro-[1,1′-biphenyl]-2-yl)methyl)-3-methylpiperazin-1-yl)benzamide] | 953 | 3.1 | 1.46
